According to patent US20260000642A1 (Tay Therapeutics Limited, priority 2022, published 2026):
pIC50: −log10 of the molar value. One block for each molecule: values may come before it.

Assays:
[1] = Plasma stability assay, rat plasma; type: in vitro ADME; settings: 37° C., Method 2 (10 μM)
Procedure: Exemplary compounds of the disclosure are stable upon incubation in mouse plasma. Stability is expressed as a % remaining after 120 minutes. The experimental methods and results (Table 2) are provided hereinafter.
Plasma Stability Assay, Method 1
From stock solution of compound in 10 mM DMSO, a working solution of 1 mM is prepared by diluting the compound in DMSO. To 398 μL of plasma pre-warmed at 37° C. for 15 minutes), 2 μL of working solution of compound is added, resulting in a final concentration of 5 μM (0.5% DMSO) for the compound. The sample is then incubated at 37° C. Aliquot is withdrawn at specified time-points (0, 15, 30, 60 and 120 mins). The reaction is stopped by addition of 450 μL cold acetonitrile containing internal standard (IS). […] Aliquots of the supernatant is analysed using LC-MS/MS. The percent remaining of the compound at each time point is calculated with respect to the control sample (0 min time-point).
Plasma Stability Assay, Method 2
A working solution of compound (500 μM) is prepared in DMSO (100%). To 735 μL of plasma, 15 μL of working solution of compound is added—resulting in a final concentration of 10 μM (2% DMSO) for the compound. The sample is then incubated at 37° C. Aliquot is withdrawn at time-points—0, 15, 30, 60, 90 and 120 mins. The reaction is stopped by using chilled acetonitrile containing internal standard (IS). The samples are centrifuged and the supernatants analyzed using LC-MS/MS. The percent remaining of the compound at each time point is calculated with respect to the control sample (0 min time-point).

BRD4 BD2 = biological target: T1, BRD4 BD2 (Homo sapiens, UniProt O60885); assay: NanoBRET bromodomain assay, NanoLuc-BRD4-BD2 fusion vector in HEK293 cells; type: cell-based; settings: for BRD4 BD2% Activity Remaining @ 10 uM: first and second (2) batches; for Fold selectivity: IC50 for BRD4 BD1 divided by IC50 for BRD4 BD2, qualitative if an IC50 is at the upper limit; for pIC50: NanoBRET, HEK293 cells, top concentration 10 μM
T1 construct: HEK293 cells were transfected using NanoLuc-BRD4-BD1 or NanoLuc-BRD4-BD2 fusion vectors; host or cells: HEK293
From the text: (§1) Bromodomain Assay Procedure

BRD4 BD1 = biological target: T2, BRD4 BD1 (Homo sapiens, UniProt O60885); assay: NanoBRET bromodomain assay, NanoLuc-BRD4-BD1 fusion vector in HEK293 cells; type: cell-based; settings: top concentration 10 μM
T2 construct: HEK293 cells were transfected using NanoLuc-BRD4-BD1 or NanoLuc-BRD4-BD2 fusion vectors; host or cells: HEK293
From the text: as §1

[2] = Sprague-Dawley rat pharmacokinetics (IV and PO); type: in vivo; settings: male Sprague-Dawley rats, cassette mode, Method 1; for IV T1/2: IV 1 mg/kg; for PO F (%) / bioavailability: PO 5 mg/kg (IV 1 mg/kg); for bioavailability: rat, plasma, read-out: PO F (%)
From the text: BET protein inhibitors with a long half-life and good oral bioavailability in in vivo DMPK parameters are promising oral drug candidates. Some of the exemplary compounds of the current disclosure have a long half-life and good oral bioavailability in in vivo DMPK parameters in the Sprague-Dawley rat following intravenous (IV) and oral (PO) dosing. The experimental methods and results (Table 5) are provided hereinafter.
Sprague-Dawley Rat Pharmacokinetics, Method 1
Compounds were formulated in 5% DMSO, 40% PEG-400, 55% Milli-Q water at a concentration of 0.2 mg/mL for IV and at 0.5 mg/mL for PO. Two male Sprague-Dawley rats per arm were dosed with up to 5 compounds in cassette mode, which each compound being dosed at 1 mg/kg IV and 5 mg/kg PO. Blood was sampled at various timepoints and plasma isolated. 50 μL of plasma with 5 μL of blank Sprague-Dawley rat plasma were added to 200 μL of acetonitrile containing IS mixture. The samples were vortexed for 30 s. After centrifugation at 4 degrees Celsius, 3900 rpm for 15 min, the supernatant was diluted 3 times with water. 20 μL of diluted supernatant was injected into the LC/MS/MS system for quantitative analysis and concentration of analyte determined by comparison with matrix matched standard curve. WinNonlin (Phoenix™, version 8.3) or other similar software may be used for pharmacokinetic calculations.

Plasma Stability (% remaining at 120 minutes) Rat [1]: 81%
Structure (SMILES): CNC(=O)c1[nH]c(C(=O)NC(C)C)cc1O[C@@H](C)c1ccc(Cl)cc1 [Example 61, (S)-3-(1-(4-chlorophenyl)ethoxy)-N^5-isopropyl-N^2-methyl-1H-pyrrole-2,5-dicarboxamide]

BRD4 BD2% Activity Remaining @ 10 uM (BRD4 BD2; listed as 96 (2)): 64%
Fold selectivity (BRD4 BD2; listed as 96(2)*): — (Fold ≥0 and ≤2)
Structure (SMILES): CCNC(=O)c1cc(OC(C)c2ccccn2)c(C(=O)NC)[nH]1 (racemic) [Example 96, N^5-ethyl-N^2-methyl-3-(1-(pyridin-2-yl)ethoxy)-1H-pyrrole-2,5-dicarboxamide]

Plasma Stability (% remaining at 120 minutes) Rat [1]: 93%
Structure (SMILES): CNC(=O)c1[nH]c(C(=O)NCC(F)(F)F)cc1O[C@@H](C)c1ccccc1 [Example 54]

Plasma Stability (% remaining at 120 minutes) Rat [1]: 9%
Structure (SMILES): CCNC(=O)c1[nH]c(C(=O)NC)c(O[C@@H](C)c2ccccc2F)c1Br [Example 72, (S)-3-bromo-N^2-ethyl-4-(1-(2-fluorophenyl)ethoxy)-N^5-methyl-1H-pyrrole-2,5-dicarboxamide]

pIC50 (BRD4 BD1): ≤ 5.00
Structure (SMILES): CNC(=O)c1[nH]c(C(=O)N[C@H]2CC[C@H](O)CC2)cc1O[C@@H](C)c1ccnnc1 (single isomer, unassigned) [Example 92, N^5-(4-hydroxycyclohexyl)-N^2-methyl-3-(1-(pyridazin-4-yl)ethoxy)-1H-pyrrole-2,5-dicarboxamide]

IV T1/2 [2]: 30 min
PO F (%) [2]: 65%
Plasma Stability (% remaining at 120 minutes) Rat [1]: 67%
Structure (SMILES): CNC(=O)c1[nH]c(C(=O)NC2CCC2)cc1OC(C)c1ccc(Cl)cc1F (single isomer, unassigned) [Example 35]

pIC50 (BRD4 BD1): ≤ 5.00
Structure (SMILES): CCNC(=O)c1cc(OC(C)c2c(C)cccc2C)c(C(=O)NC)[nH]1 (single isomer, unassigned) [Example 64, 3-(1-(2,6-dimethylphenyl)ethoxy)-N^5-ethyl-N^2-methyl-1H-pyrrole-2,5-dicarboxamide]

Plasma Stability (% remaining at 120 minutes) Rat [1]: 91%
Structure (SMILES): CCNC(=O)c1cc(OC(c2ccccc2)c2ccccc2)c(C(=O)NC)[nH]1 [Example 53, 3-(benzhydryloxy)-N^5-ethyl-N^2-methyl-1H-pyrrole-2,5-dicarboxamide]

Plasma Stability (% remaining at 120 minutes) Rat [1]: 93%
Structure (SMILES): CCNC(=O)c1cc(OC(C)c2ccc(I)cc2)c(C(=O)NC)[nH]1 (single isomer, unassigned) [Example 51, N^5-ethyl-3-(1-(4-iodophenyl)ethoxy)-N^2-methyl-1H-pyrrole-2,5-dicarboxamide]

pIC50 (BRD4 BD1): ≤ 5.00
Structure (SMILES): CNC(=O)c1[nH]c(C(=O)NC2CCC2)cc1OC(C)c1ccc(Cl)cc1 (single isomer, unassigned) [Example 28, 3-(1-(4-chlorophenyl)ethoxy)-N^5-cyclobutyl-N^2-methyl-1H-pyrrole-2,5-dicarboxamide]

Fold selectivity (BRD4 BD2): X (Fold >2 and ≤50)
pIC50 (BRD4 BD2): 5.00 to 6.00
pIC50 (BRD4 BD1): ≤ 5.00
Structure (SMILES): CCNC(=O)c1[nH]c(C(=O)NC)c(O[C@@H](C)c2ccccc2F)c1C [Example 74]

Plasma Stability (% remaining at 120 minutes) Rat [1]: 85%
Structure (SMILES): CNC(=O)c1[nH]c(C(=O)NC2CCC2)cc1OC(C)c1ccc(Cl)cn1 (single isomer, unassigned) [Example 33, 3-(1-(5-chloropyridin-2-yl)ethoxy)-N^5-cyclobutyl-N^2-methyl-1H-pyrrole-2,5-dicarboxamide]

Plasma Stability (% remaining at 120 minutes) Rat [1]: 83%
Structure (SMILES): CNC(=O)c1[nH]c(-c2ncc(C)[nH]2)cc1O[C@@H](C)c1ccc(Cl)cc1 [Example 69, (S)-3-(1-(4-chlorophenyl)ethoxy)-N-methyl-5-(5-methyl-1H-imidazol-2-yl)-1H-pyrrole-2-carboxamide]

pIC50 (BRD4 BD2): 6.70 to 7.30
Plasma Stability (% remaining at 120 minutes) Rat [1]: 88%
pIC50 (BRD4 BD1): ≤ 5.00
Structure (SMILES): CNC(=O)c1[nH]c(C(=O)N[C@H]2CC[C@H](O)CC2)cc1OC(C)c1ccccc1F (single isomer, unassigned) [Example 45]

bioavailability [2]: 8%
Plasma Stability (% remaining at 120 minutes) Rat [1]: 82%
Structure (SMILES): CNC(=O)c1[nH]c(C(=O)NC2CC2)cc1O[C@@H](C)c1ccc(Cl)cc1 [Example 62, (S)-3-(1-(4-chlorophenyl)ethoxy)-N^5-cyclopropyl-N^2-methyl-1H-pyrrole-2,5-dicarboxamide]

bioavailability [2]: 44%
Plasma Stability (% remaining at 120 minutes) Rat [1]: 92%
Structure (SMILES): C#Cc1ccc(C(C)Oc2cc(C(=O)NCC)[nH]c2C(=O)NC)cc1 (single isomer, unassigned) [Example 70, N^5-ethyl-3-(1-(4-ethynylphenyl)ethoxy)-N^2-methyl-1H-pyrrole-2,5-dicarboxamide]

BRD4 BD2% Activity Remaining @ 10 uM (BRD4 BD2; listed as 24 (2)): 78%
Fold selectivity (BRD4 BD2): X (Fold >2 and ≤50)
Fold selectivity (BRD4 BD2; listed as 24 (2)*): — (Fold ≥0 and ≤2)
Structure (SMILES): CNC(=O)c1[nH]c(-c2ncc(C)[nH]2)cc1O[C@H](C)c1ccccc1 [Example 24, (R)—N-methyl-5-(5-methyl-1H-imidazol-2-yl)-3-(1-phenylethoxy)-1H-pyrrole-2-carboxamide]

Plasma Stability (% remaining at 120 minutes) Rat [1]: 90%
Structure (SMILES): CCNC(=O)c1cc(OC(C)c2ccc(Br)cc2)c(C(=O)NC)[nH]1 (single isomer, unassigned) [Example 49, 3-(1-(4-bromophenyl)ethoxy)-N^5-ethyl-N^2-methyl-1H-pyrrole-2,5-dicarboxamide]

IV T1/2 [2]: 24 min
PO F (%) [2]: 47%
Plasma Stability (% remaining at 120 minutes) Rat [1]: 47%
Structure (SMILES): CNC(=O)c1[nH]c(C(=O)NC2CCC2)cc1OC(C)c1ccc(Cl)cc1 (single isomer, unassigned) [Example 27, 3-(1-(4-chlorophenyl)ethoxy)-N^5-cyclobutyl-N^2-methyl-1H-pyrrole-2,5-dicarboxamide]

IV T1/2 [2]: 30 min
PO F (%) [2]: 58%
Plasma Stability (% remaining at 120 minutes) Rat [1]: 20%
Structure (SMILES): CNC(=O)c1[nH]c(C(=O)NC2CCC2)cc1OC(C)c1ccccc1F (single isomer, unassigned) [Example 43, N^5-cyclobutyl-3-(1-(2-fluorophenyl)ethoxy)-N^2-methyl-1H-pyrrole-2,5-dicarboxamide]

pIC50 (BRD4 BD2): 6.70 to 7.30
Structure (SMILES): CNC(=O)c1[nH]c(C(=O)N[C@@H]2CC[C@@H](O)C2)cc1O[C@@H](C)c1ccccc1 (racemic) [Example 116, N^5-(trans-3-hydroxycyclopentyl)-N^2-methyl-3-((S)-1-phenylethoxy)-1H-pyrrole-2,5-dicarboxamide]

pIC50 (BRD4 BD2): < 5.00
Plasma Stability (% remaining at 120 minutes) Rat [1]: 88%
pIC50 (BRD4 BD1): ≤ 5.00
Structure (SMILES): CCNC(=O)c1cc(OC(C)c2c(F)cccc2F)c(C(=O)NC)[nH]1 (single isomer, unassigned) [Example 55, 3-(1-(2,6-difluorophenyl)ethoxy)-N^5-ethyl-N^2-methyl-1H-pyrrole-2,5-dicarboxamide]

Plasma Stability (% remaining at 120 minutes) Rat [1]: 75%
Structure (SMILES): CNC(=O)c1[nH]c(-c2ncc(C)[nH]2)cc1O[C@@H](C)c1ccccc1F [Example 68, (S)-3-(1-(2-fluorophenyl)ethoxy)-N-methyl-5-(5-methyl-1H-imidazol-2-yl)-1H-pyrrole-2-carboxamide]

IV T1/2 [2]: 66 min
PO F (%) [2]: 70%
Plasma Stability (% remaining at 120 minutes) Rat [1]: 50%
Structure (SMILES): CNC(=O)c1[nH]c(C(=O)NC2CC2)cc1O[C@@H](C)c1ccccc1F [Example 59, (S)—N^5-cyclopropyl-3-(1-(2-fluorophenyl)ethoxy)-N^2-methyl-1H-pyrrole-2,5-dicarboxamide]
